Patent publication US4236008A, “Fluorination of precursors for fluorine analogs of hydrocodone and oxycodone” (priority 1978, dated 1980)
Counter-ions that a name gives are not always drawn. Like-named read-outs stand apart in the source and are kept apart here.

Columns and labels:
[1] = system: characteristic stretching or writhing syndrome induced by phenylquinone; assay: standard phenylquinone writhing test (PQW), analgesic activity, oral; details: Mus musculus
Experimental: A test compound suspended in 1% methylcellulose was given orally to fasted (17-21 hours) female white mice, 5-20 animals per double blind test. Aqueous (0.01% phenyl-p-benzoquinone) phenylquinone was injected intraperitoneally at 24 minutes later using 0.20 ml per mouse. […] This is reported as PQW ED50 in the table below.

[2] = in vivo; details: mouse, sc, 135 mg/kg
Experimental: A positive Straub tail response was recorded if a tail was erected for 3 seconds at any time within 25 minutes after dosing. A quantal Straub tail ED50 was calculated by the moving average method and is an indication of physical dependence.

[3] = system: morphine-induced Straub tail; assay: narcotic antagonist (anti-Straub tail) test, prevention of morphine-induced Straub tail; details: Mus musculus, ip, 10 min, read-out: MOUSE ED50 VALUES: ANTI-STRAUB TAIL
Experimental: The narcotic antagonist (anti-Straub tail) property of the compounds is estimated by their ability to prevent morphine-induced Straub tail in mice. […] Prevention of the induction of a 90° Straub tail for minutes after the morphine sulfate injection is considered to indicate narcotic antagonism in the compound tested.

[4] = read-out: MOUSE ED50 VALUES: PQW
[5] = 0.5 h, read-out: MOUSE ED50 VALUES: PQW (peak time value)

| Structure (SMILES) | ED50 [1, 4] [mg/kg] | ED50 [2] [mg/kg] | ED50 [3] [mg/kg] | ED50 [1, 5] [mg/kg] |
| --- | --- | --- | --- | --- |
| COc1ccc2c3c1O[C@H]1C(F)(F)CC[C@@]4(F)[C@@H](C2)N(CC2CCC2)CC[C@]314.Cl [Compound 17, 17-Cyclobutylmethyl-4,5α-epoxy-6,6,14β-trifluoro-3-methoxymorphinan Hydrochloride] | > 135 | > 135 | 17 |  |
| COc1ccc2c3c1O[C@H]1[C@@H](O)C=C[C@H]4[C@@H](C2)N(C)CC[C@@]341 [Codeine PO4, reference compound] |  |  | > 140 | 4.7 |
| COc1ccc2c3c1O[C@H]1C(F)=CC[C@H]4[C@@H](C2)N(CC2CC2)CC[C@]314 [Compound 23, 17-Cyclopropylmethyl-6,7-didehydro-4,5-epoxy-6-fluoro-3-methoxymorphinan] | 18 | > 135 | 0.21 |  |
| COc1ccc2c3c1O[C@H]1C(F)(F)CC[C@H]4[C@@H](C2)N(CC2CC2)CC[C@@]341 [Compound 22, 17-Cyclopropylmethyl-4,5-epoxy-6,6-difluoro-3-methoxymorphinan] |  | > 54 | 0.15 | 2.2 |
| COc1ccc2c3c1OC1C(F)C=CC4C(C2)N(C)CCC341 (stereo not drawn) [Ayer 3,137,701, reference compound] | 32 |  | > 162 |  |
| COc1ccc2c3c1O[C@H]1C(F)(F)CC[C@H]4[C@@H](C2)N(C)CC[C@@]341 [Compound 4, 17-Methyl-4,5-epoxy-6,6-difluoro-3-methoxymorphinan Hydrochloride] | 2.7 | 10 | > 81 |  |
| CN1CC[C@]23c4c5ccc(O)c4O[C@H]2[C@@H](O)C=C[C@H]3[C@H]1C5 [Morphine SO4, reference compound] |  |  |  | 3 |
| COc1ccc2c3c1O[C@H]1C(F)=CC[C@H]4[C@@H](C2)N(C)CC[C@]314 [Compound 2, 17-Methyl-6,7-didehydro-4,5-epoxy-6-fluoro-3-methoxymorphinan Hydrochloride] | 8 | 26 | 94 |  |
| COc1ccc2c3c1O[C@H]1C(F)(F)CC[C@@]4(F)[C@@H](C2)N(CC2CC2)CC[C@]314 [Compound 13, 17-Cyclopropylmethyl-4,5-epoxy-6,6,14β-trifluoro-3-methoxymorphinan H ydrochloride] | > 135 | > 135 |  |  |
| COc1ccc2c3c1O[C@H]1C(F)(F)CC[C@H]4[C@@H](C2)N(CC2CCC2)CC[C@@]341 [Compound 9, 17-Cyclobutylmethyl-4,5-epoxy-6,6-difluoro-3-methoxymorphinan Hydrochloride] |  | > 135 | 4.1 | 2.9 |
| COc1ccc2c3c1O[C@H]1C(F)(F)CC[C@@]4(O)[C@@H](C2)N(CC2CCC2)CC[C@]314.Cl [Compound 30, 17-Cyclobutylmethyl-4,5α-epoxy-6,6-difluoro-14β-hydroxy-3-methoxymorphinan Hydrochloride] | 26 |  | 10.8 |  |
